# Source: article PMC8779255, “Determining the Anticancer Activity of Sphingosine Kinase Inhibitors Containing Heteroatoms in Their Tail Structure” (Pharmaceutics, 2022)
# Tests used:
# [1] = tested on: S1PR1; design: method as in PMID 27297359; settings: in Figure 1, no unit; cited from earlier work
# [2] = tested on: S1PR2; design: method as in PMID 27297359; settings: in Figure 1, no unit; cited from earlier work
# [3] = tested on: S1PR3; design: method as in PMID 27297359; settings: in Figure 1, no unit; cited from earlier work
# [4] = tested on: S1PR4; design: method as in PMID 27297359; settings: in Figure 1, no unit; cited from earlier work
# [5] = tested on: S1PR5; design: method as in PMID 27297359; settings: in Figure 1, no unit; cited from earlier work
# [6] = tested on: HCT116 cells; test: MTT cell viability assay; assay type: cell-based, human
# Procedure: (§1) The HT29 and HCT116 cells (human colon cancer), AGS (human gastric cancer), and MIA PaCa-2 cells (human pancreatic cancer) were purchased from Korean Cell Line Bank (Seoul, Korea). Cancer cells were maintained in RPMI (HT29 and AGS) and DMEM (HCT116 and MIA PaCa-2) culture media supplemented with 10% fetal bovine serum (FBS) and 100 U/mL penicillin and streptomycin at 37 °C in a 95% humidified incubator containing 5% CO2. The cytotoxic effect of the compounds was assessed using the MTT cell viability assay. Briefly, 3 × 10^3 cells/well were grown in 96-well plates for 24 h. After treatment with desired concentration of respective compounds for 24 h or 48 h, the EZ-CYTOTOX (10 µM) reagent was added in each well and incubated for 90 min. The absorbance was measured at 450 nm wavelength using Skanlt software 5.0 (Thermo Scientific, Waltham, MA, USA) installed on a Multiskan GO (Thermo Scientific, Waltham, MA, USA) spectrophotometer. Each experiment was independently repeated three times (n = 12).
# [7] = tested on: HT29 cells; test: MTT cell viability assay; assay type: cell-based, human
# Procedure: as §1
# [8] = tested on: HT29 cells; test: Annexin V-FITC/PI staining, flow cytometry; assay type: cell-based, human; settings: HT29, 10 and/or 20 µM, 24 h
# Procedure: After treating HT29 and HCT116 cells with compounds 10, 11, 13 and FTY720 according to the manufacturer’s instruction, the annexin V and PI staining technique was employed to determine apoptosis in the cells. Briefly, cells (2.5 × 10^5 cells/well) were seeded in 12-well plates and treated with 10 and/or 20 µM of compounds for 24 h. Cells were collected using trypsin-EDTA and stained with annexin V-FITC dye for 15 min at room temperature, followed by PI staining for 20 min and analyzed by flow cytometer (MACSQuant Analyzer 10; Miltenyi Biotec, Bergisch Gladbach, Germany). The data was analyzed using MACSQuantify^TM version 2.8 software (Miltenyi Biotec, Bergisch Gladbach, Germany) and presented as early apoptosis, late apoptosis, or combined apoptosis percentage. Each experiment was repeated three times independently (n = 6).
# [9] = molecular target: T1, PP2A in HCT116 cells (Homo sapiens, UniProt P67775); test: PP2A activity assay (immunoprecipitation kit); assay type: cell-based; settings: HCT116, 24 h, 20 µM of compounds 10, 11 and 13; vs nontreated control cells
# T1 construct: endogenous in cells; host or cells: HCT116
# Procedure: The activity of PP2A was measured by using the PP2A kit according to the manufacturer’s instruction. The cell lysate was incubated with anti PP2A, C subunit antibody, and protein A agarose slurry for 2 h at 4 °C. The phosphopeptide solution (60 µL) was mixed and incubated at 30 °C for 10 min in a shaker. After a brief centrifuge, a 25 µL sample was liquated in ½ volume microplate and 100 µL malachite green phosphate detection working solution was added. After color development, absorbance was taken at 650 nm in a Multiskan GO microplate reader. A phosphate standard curve was constructed using phosphate standard, and results were calculated using this standard curve. This experiment was repeated three times (n = 6).
# [10] = molecular target: T2, CYP3A4 (Homo sapiens, UniProt P08684); test: Inhibition of CYP enzymes activity, human liver microsomes; assay type: in vitro ADME; settings: human liver microsomes 0.25 mg/mL, 10 μM, midazolam substrate
# T2 construct: Human liver microsomes (0.25 mg/mL); from tissue; host or cells: human liver microsomes
# Procedure: (§3) By simultaneously analyzing metabolites, the ability of the six compounds to inhibit drug metabolism enzymes was evaluated.
# (§4) Metabolites of each CYP coenzyme indicator drug generated through the above reaction were analyzed using the Shimadzu Nexera XR system and TSQ vantage (Thermo). The HPLC column was a Kinetex C18 column (2.1 × 100 mm^2, 2.6 μm particle size; Phenomenex, Torrance, CA, USA), and the mobile phase was distilled water (A) containing 0.1% formic acid and acetonitrile (B) containing 0.1% formic acid. […] The generated metabolites were quantified using MRM (Multiple Reaction Monitoring) quantification modes, and data were analyzed using Xcalibur (version 1.6.1).
# [11] = In vitro metabolic stability in liver microsomes; assay type: in vitro ADME, rat
# [12] = In vitro metabolic stability in liver microsomes; assay type: in vitro ADME, mouse
# [13] = tested on: SK1; settings: known compounds, Figure 1; cited from earlier work
# [14] = tested on: SK2; settings: known compounds, Figure 1; cited from earlier work
# [15] = In vitro metabolic stability in liver microsomes
# Procedure: Microsome incubation was measured in triplicate in a 1.5 mL Eppendorf tube with 0.1 M potassium phosphate buffer (pH 7.4). […] It has a final volume of 100 mL in the presence of an NADPH regeneration system. In the final incubation mixture, 0.5 mg/mL HLM, 0.1 M potassium phosphate buffer (pH 7.4), and NADPH regeneration system (1 mM NADPH, 10 mM MgCl2) were included. In the pre-incubation mixture, HLM was added, and the mixture was run in a shaking incubator at approximately 350 rpm and 37 °C for 5 min under a Thermomixer (Eppendorf, Hamburg, Germany). Reactions were initiated by the addition of 1 mM NADPH and then quenched by the addition of 40 μL of ice-cold acetonitrile containing 10 μM chlorpropamide (CPP) as an internal standard at 0 and 30 min. After quenching, centrifugation of the incubation mixture was performed at 15,000× g for 5 min at 4 °C. An aliquot of 2 µL of the supernatant was injected into the LC-MS/MS system. The LC-MS/MS system was Xcalibur version 1.1.1 (Thermo Fisher Scientific Inc., Waltham, MA, USA).
# [16] = molecular target: T3, CYP1A2 (Homo sapiens, UniProt P05177); test: Inhibition of CYP enzymes activity, human liver microsomes; settings: human liver microsomes 0.25 mg/mL, 10 μM, phenacetin substrate
# T3 sequence (P05177 1-516): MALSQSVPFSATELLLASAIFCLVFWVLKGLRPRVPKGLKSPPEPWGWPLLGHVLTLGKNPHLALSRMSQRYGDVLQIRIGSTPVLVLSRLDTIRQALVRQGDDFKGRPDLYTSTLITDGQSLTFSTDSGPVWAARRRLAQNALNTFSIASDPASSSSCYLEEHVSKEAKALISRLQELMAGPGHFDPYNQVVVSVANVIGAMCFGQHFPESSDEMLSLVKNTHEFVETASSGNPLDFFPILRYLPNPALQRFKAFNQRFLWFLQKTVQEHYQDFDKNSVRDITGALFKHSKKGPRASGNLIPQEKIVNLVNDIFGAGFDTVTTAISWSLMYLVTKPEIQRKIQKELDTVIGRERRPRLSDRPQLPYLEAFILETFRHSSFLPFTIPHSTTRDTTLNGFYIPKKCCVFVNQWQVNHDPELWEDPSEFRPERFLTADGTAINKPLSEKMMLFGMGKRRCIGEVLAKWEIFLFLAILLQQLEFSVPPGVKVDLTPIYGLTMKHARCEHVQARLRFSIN
# Procedure: (§5) Afterward, to terminate the reaction, an acetonitrile solution containing an internal standard (terfenadine) was added, centrifuged for 5 min (14,000 rpm, 4 °C), and the supernatant was injected into the LC-MS/MS system. By simultaneously analyzing metabolites, the ability of the six compounds to inhibit drug metabolism enzymes was evaluated.
# as §4
# [17] = molecular target: CYP2C9 (Homo sapiens, UniProt P11712); test: as above; settings: human liver microsomes 0.25 mg/mL, 10 μM, diclofenac substrate
# Procedure: as §3, §4
# [18] = molecular target: CYP2C19 (Homo sapiens, UniProt P33261); test: as above; settings: human liver microsomes 0.25 mg/mL, 10 μM, S-mephenytoin substrate
# Procedure: as §3, §4
# [19] = molecular target: CYP2D6 (Homo sapiens, UniProt P10635); test: as above; settings: human liver microsomes 0.25 mg/mL, 10 μM, dextromethorphan substrate
# Procedure: as §5, §4
# [20] = molecular target: T4, SK1 enzyme (Homo sapiens, UniProt Q9NYA1); test: SK activity assay (Adapta screening system); assay type: biochemical; settings: 20 μM, Figure 5A
# T4 construct: purchased Thermo Fisher Scientific
# Procedure: (§2) The effect of compounds in sphingosine kinase activity was examined using the […] screening system (Thermo Fisher Scientific System, Waltham, MA, USA). The kinase inhibition ability of compounds 1-11 along with RB005 was measured with final concentration of 20 μM. […] The data were presented as percentage inhibition of SK enzyme by individual compounds.
# [21] = molecular target: T5, SK2 enzyme (Homo sapiens, UniProt Q9NRA0); test: SK activity assay (Adapta screening system); assay type: biochemical; settings: 20 μM, Figure 5A
# T5 construct: purchased Thermo Fisher Scientific
# Procedure: as §2
# [22] = % remaining after 30 min, NADPH
# Sequence of CYP2C19 (P33261 whole entry): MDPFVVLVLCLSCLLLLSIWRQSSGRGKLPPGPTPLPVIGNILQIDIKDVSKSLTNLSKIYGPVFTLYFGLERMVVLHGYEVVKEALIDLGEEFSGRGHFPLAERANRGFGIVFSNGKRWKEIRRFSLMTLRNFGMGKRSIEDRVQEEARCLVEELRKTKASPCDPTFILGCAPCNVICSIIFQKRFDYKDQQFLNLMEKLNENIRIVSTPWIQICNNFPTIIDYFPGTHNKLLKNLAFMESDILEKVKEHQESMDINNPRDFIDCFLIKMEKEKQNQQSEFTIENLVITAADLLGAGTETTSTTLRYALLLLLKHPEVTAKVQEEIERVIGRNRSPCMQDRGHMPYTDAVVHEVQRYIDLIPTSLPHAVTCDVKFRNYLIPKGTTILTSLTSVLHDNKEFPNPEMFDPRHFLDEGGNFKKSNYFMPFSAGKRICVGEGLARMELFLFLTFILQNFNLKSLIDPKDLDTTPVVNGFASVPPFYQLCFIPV
# T1 sequence (P67775 whole entry): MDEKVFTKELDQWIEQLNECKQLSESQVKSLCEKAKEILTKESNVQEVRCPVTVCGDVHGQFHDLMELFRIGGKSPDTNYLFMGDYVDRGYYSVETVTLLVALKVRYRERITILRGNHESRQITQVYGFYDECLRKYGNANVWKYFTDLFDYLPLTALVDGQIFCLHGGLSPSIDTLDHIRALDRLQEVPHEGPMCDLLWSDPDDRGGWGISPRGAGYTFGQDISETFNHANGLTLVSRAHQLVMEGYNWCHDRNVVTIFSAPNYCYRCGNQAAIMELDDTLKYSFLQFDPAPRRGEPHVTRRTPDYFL
# T5 sequence (Q9NRA0 whole entry): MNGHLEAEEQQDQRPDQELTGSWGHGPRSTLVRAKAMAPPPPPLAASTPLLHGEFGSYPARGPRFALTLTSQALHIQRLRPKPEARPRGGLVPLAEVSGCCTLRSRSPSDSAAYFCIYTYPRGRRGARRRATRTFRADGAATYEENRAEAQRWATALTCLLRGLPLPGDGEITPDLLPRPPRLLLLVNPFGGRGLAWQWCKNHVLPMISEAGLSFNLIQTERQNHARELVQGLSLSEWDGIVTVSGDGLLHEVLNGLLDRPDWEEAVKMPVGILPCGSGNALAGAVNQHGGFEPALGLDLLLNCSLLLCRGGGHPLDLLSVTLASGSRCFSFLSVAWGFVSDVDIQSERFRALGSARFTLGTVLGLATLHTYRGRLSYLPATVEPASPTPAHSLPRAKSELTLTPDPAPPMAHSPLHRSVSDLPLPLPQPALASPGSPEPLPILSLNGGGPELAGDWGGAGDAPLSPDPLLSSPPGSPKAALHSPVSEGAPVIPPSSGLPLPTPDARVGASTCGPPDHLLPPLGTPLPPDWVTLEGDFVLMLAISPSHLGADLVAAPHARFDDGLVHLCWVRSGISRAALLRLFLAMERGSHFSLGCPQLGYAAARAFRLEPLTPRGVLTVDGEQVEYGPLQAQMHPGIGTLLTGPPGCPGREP
# T4 sequence (Q9NYA1 whole entry): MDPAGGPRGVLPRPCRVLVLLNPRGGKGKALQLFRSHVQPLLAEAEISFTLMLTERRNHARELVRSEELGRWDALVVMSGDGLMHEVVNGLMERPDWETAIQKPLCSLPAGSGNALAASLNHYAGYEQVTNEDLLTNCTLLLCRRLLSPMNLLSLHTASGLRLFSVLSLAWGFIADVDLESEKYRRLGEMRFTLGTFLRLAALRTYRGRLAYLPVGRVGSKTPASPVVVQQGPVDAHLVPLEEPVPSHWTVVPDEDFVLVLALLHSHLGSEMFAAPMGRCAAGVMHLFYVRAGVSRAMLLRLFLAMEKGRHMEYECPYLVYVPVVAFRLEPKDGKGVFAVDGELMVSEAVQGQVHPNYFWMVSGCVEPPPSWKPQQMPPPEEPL
# Sequence of CYP2C9 (P11712 whole entry): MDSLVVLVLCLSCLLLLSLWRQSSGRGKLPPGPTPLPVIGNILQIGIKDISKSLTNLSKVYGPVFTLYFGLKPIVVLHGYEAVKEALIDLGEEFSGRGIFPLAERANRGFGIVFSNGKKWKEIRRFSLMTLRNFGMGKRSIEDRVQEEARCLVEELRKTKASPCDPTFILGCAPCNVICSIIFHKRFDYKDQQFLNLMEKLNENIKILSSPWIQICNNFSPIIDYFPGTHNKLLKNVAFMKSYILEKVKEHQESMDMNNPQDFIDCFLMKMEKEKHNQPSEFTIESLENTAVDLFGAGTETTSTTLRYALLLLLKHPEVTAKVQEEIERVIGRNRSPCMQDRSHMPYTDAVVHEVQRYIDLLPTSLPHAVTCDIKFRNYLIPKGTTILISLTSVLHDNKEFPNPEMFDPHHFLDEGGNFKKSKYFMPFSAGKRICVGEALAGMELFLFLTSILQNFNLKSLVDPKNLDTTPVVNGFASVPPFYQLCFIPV
# Sequence of CYP2D6 (P10635 whole entry): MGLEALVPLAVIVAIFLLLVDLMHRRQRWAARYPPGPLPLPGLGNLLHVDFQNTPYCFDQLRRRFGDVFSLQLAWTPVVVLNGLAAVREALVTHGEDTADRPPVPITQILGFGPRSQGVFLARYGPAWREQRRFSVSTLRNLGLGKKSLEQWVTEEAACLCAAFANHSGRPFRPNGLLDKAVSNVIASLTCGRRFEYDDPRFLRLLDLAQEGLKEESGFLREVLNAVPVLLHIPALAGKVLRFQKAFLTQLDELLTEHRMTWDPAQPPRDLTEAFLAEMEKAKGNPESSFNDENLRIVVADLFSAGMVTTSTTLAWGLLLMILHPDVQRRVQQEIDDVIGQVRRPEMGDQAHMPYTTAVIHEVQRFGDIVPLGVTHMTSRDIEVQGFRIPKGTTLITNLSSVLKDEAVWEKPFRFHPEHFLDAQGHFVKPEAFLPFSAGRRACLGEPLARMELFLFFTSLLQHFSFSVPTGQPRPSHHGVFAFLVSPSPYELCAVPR
# T2 sequence (P08684 whole entry): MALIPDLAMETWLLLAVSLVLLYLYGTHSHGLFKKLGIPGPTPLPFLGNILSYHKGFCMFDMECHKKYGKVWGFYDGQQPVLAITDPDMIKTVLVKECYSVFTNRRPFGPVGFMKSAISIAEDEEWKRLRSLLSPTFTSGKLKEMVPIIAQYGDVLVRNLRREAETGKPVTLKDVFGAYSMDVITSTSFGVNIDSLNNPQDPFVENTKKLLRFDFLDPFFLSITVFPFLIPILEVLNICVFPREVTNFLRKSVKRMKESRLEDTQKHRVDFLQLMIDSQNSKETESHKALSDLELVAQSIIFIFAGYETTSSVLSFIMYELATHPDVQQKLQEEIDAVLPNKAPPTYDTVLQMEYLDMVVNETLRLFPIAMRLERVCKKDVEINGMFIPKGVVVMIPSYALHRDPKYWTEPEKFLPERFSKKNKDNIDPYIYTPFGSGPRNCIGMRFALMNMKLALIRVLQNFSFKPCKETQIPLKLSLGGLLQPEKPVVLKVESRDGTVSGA
structure (smiles),measurement,setting,value
CC1=C(CN2CC(C(=O)O)C2)CCc2cc(OCCCCc3ccccc3)ccc21 [Compound W-061],"Binding affinity, S1PR1",[1],4.11
same,"Binding affinity, S1PR2",[2],> 43800
same,"Binding affinity, S1PR3",[3],1710
same,"Binding affinity, S1PR4",[4],65.4
same,"Binding affinity, S1PR5",[5],10.5
CCCCCCCCc1ccc(CCC(N)(CO)CO)cc1 [FTY720],IC50,"[6]; Homo sapiens, HCT-116, HCT116, 48 h treatment, 2.5–40 µM, read-out: relative IC50 (cell viability)",4.19 µM
same,IC50,"[7]; Homo sapiens, HT-29, HT29, 48 h treatment, 2.5–40 µM, read-out: relative IC50 (cell viability)",4.18 µM
same,apoptosis (annexin V assay),[8],increased apoptosis
same,PP2A activity increase,[9],1.65 fold
same,CYP3A4 activity (% of control activity),[10],>100%
same,"liver microsomal stability, Rat (%)",[11]; [22],77.0%
same,liver microsomal stability (in words),[11]; rat,stable
same,"liver microsomal stability, Mouse (%)",[12]; [22],89.9%
same,liver microsomal stability (in words),[12]; mouse,stable
same,IC50,[13],5 to 12.5 µM
same,IC50,[14],5 to 12.5 µM
same,"liver microsomal stability, Human (%)","[15]; % remaining after 30 min, 0.5 mg/mL microsomes, NADPH",90.5%
same,liver microsomal stability (in words),[15]; human,stable
same,CYP1A2 activity (% of control activity),[16],86.5%
same,CYP2C9 activity (% of control activity),[17],96.8%
same,CYP2C19 activity (% of control activity),[18],86.8%
same,CYP2D6 activity (% of control activity),[19],92.0%
"CCCCCCCOc1ccc(CCN2CCC(O)CC2)cc1 [Compound 3, 1-(4-(Heptyloxy)phenethyl)piperidin-4-ol]",cytotoxic effect (cell viability),"[6]; HCT116, 20 and 40 µM, 24 h, Figure 2B","only 40 µM concentration of compounds 3, 5 and 9 shows significant cytotoxic effect"
same,cytotoxic effect (cell viability),"[7]; HT29, 20 and 40 µM, 24 h, Figure 2A",more cytotoxic than RB005 and 5-FU
same,SK1/2 inhibitory effect compared to RB005 (SK1),[20],three times higher
same,SK1/2 inhibitory effect compared to RB005 (SK2),[21],three times higher
